{
  "source": "patent US11492347B2",
  "about": "(ENYO PHARMA, priority 2018, dated 2022)",
  "data": [
    {"test_system": "H1N1 (influenza A/New Caledonia/20/99)", "assay": "microbe, parasite or virus in culture", "format": "cell-based", "details": "H1N1, A549, 48 h", "units": {"IC50": "µM"}, "values": [
      {"smiles": "CN(c1ccc(C(=O)Nc2sc3c(c2C(=O)O)CC(C)(C)CC3)cc1)C1CCOCC1", "note": "[#160, 5,5-Dimethyl-2-[[4-[methyl(tetrahydropyran-4-yl)amino]benzoyl]amino]-6,7-dihydro-4H-benzothiophene-3-carboxylic acid]", "IC50": 0.006},
      {"smiles": "CC1(C)CCc2sc(NC(=O)c3ccc(NC4CCOCC4)cc3)c(C(=O)O)c2C1", "note": "[#161, 5,5-Dimethyl-2-[[4-(tetrahydropyran-4-ylamino)benzoyl]amino]-6,7-dihydro-4H-benzothiophene-3-carboxylic acid]", "IC50": 0.015},
      {"smiles": "CC1(C)Cc2c(sc(NC(=O)c3ccc(OCC4CCOCC4)cc3)c2C(=O)O)C(C)(C)C1", "note": "[#162, 5,5,7,7-Tetramethyl-2-[[4-(tetrahydropyran-4-ylmethoxy)benzoyl]amino]-4,6-dihydrobenzothiophene-3-carboxylic acid]", "IC50": 0.039},
      {"smiles": "COC1CN(c2ccc(C(=O)Nc3sc4c(c3C(=O)O)CC(C)(C)CC4)cc2)C1", "note": "[#163, 2-[[4-(3-Methoxyazetidin-1-yl)benzoyl]amino]-5,5-dimethyl-6,7-dihydro-4H-benzothiophene-3-carboxylic acid]", "IC50": 0.018},
      {"smiles": "COC1CC(N(C)c2ccc(C(=O)Nc3sc4c(c3C(=O)O)CC(C)(C)CC4(C)C)cc2)C1", "note": "(centres unmarked) [#165, 2-[[4-[(3-Methoxycyclobutyl)-methyl-amino]benzoyl]amino]-5,5,7,7-tetramethyl-4,6-dihydrobenzothiophene-3-carboxylic acid]", "IC50": 0.0117},
      {"smiles": "CC1(C)Cc2c(sc(NC(=O)c3ccc(NCC4CCCCO4)cc3)c2C(=O)O)C(C)(C)C1", "note": "(centres unmarked) [#166, 5,5,7,7-Tetramethyl-2-[[4-(tetrahydropyran-2-ylmethylamino)benzoyl]amino]-4,6-dihydrobenzothiophene-3-carboxylic acid]", "IC50": 0.0067},
      {"smiles": "CC1(C)Cc2c(sc(NC(=O)c3ccc(OCC4COC4)cc3)c2C(=O)O)C(C)(C)C1", "note": "[#167, 5,5,7,7-Tetramethyl-2-[[4-(oxetan-3-ylmethoxy)benzoyl]amino]-4,6-dihydrobenzothiophene-3-carboxylic acid]", "IC50": 0.108},
      {"smiles": "COCCOc1ccc(C(=O)Nc2sc3c(c2C(=O)O)CC(C)(C)CC3(C)C)cc1", "note": "[#168, 2-[[4-(2-Methoxyethoxy)benzoyl]amino]-5,5,7,7-tetramethyl-4,6-dihydrobenzothiophene-3-carboxylic acid]", "IC50": 0.0232},
      {"smiles": "COCC1CN(c2ccc(C(=O)Nc3sc4c(c3C(=O)O)CC(C)(C)CC4(C)C)cc2)C1", "note": "[#169, 2-[[4-[3-(Methoxymethyl)azetidin-1-yl]benzoyl]amino]-5,5,7,7-tetramethyl-4,6-dihydrobenzothiophene-3-carboxylic acid]", "IC50": 0.0155},
      {"smiles": "CC1(C)Cc2c(sc(NC(=O)c3ccc(OC4CCOCC4)cc3)c2C(=O)O)C(C)(C)C1", "note": "[#170, 5,5,7,7-Tetramethyl-2-[(4-tetrahydropyran-4-yloxybenzoyl)amino]-4,6-dihydrobenzothiophene-3-carboxylic acid]", "IC50": 0.035},
      {"smiles": "CC1CC(C)(C)Cc2sc(NC(=O)c3ccc(N(C)C4CCOCC4)cc3)c(C(=O)O)c21", "note": "(centres unmarked) [#171]", "IC50": 0.0063},
      {"smiles": "COCCNc1ccc(C(=O)Nc2sc3c(c2C(=O)O)CC(C)(C)CC3)cc1", "note": "[#173, 2-[[4-(2-Methoxyethylamino)benzoyl]amino]-5,5-dimethyl-6,7-dihydro-4H-benzothiophene-3-carboxylic acid]", "IC50": 0.024},
      {"smiles": "CC1(C)Cc2c(sc(NC(=O)c3ccc(C4CCOCC4)cc3)c2C(=O)O)C(C)(C)C1", "note": "[#174, 5,5,7,7-Tetramethyl-2-[(4-tetrahydropyran-4-ylbenzoyl)amino]-4,6-dihydrobenzothiophene-3-carboxylic acid]", "IC50": 0.039},
      {"smiles": "Cn1cc(C(=O)Nc2sc3c(c2C(=O)O)CC(C)(C)CC3(C)C)cn1", "note": "[#176, 5,5,7,7-Tetramethyl-2-[(1-methylpyrazole-4-carbonyl)amino]-4,6-dihydrobenzothiophene-3-carboxylic acid]", "IC50": 0.46},
      {"smiles": "CC1(C)Cc2c(sc(NC(=O)c3ccc(N4CCOCC4)nc3)c2C(=O)O)C(C)(C)C1", "note": "[#201, 5,5,7,7-Tetramethyl-2-[(6-morpholinopyridine-3-carbonyl)amino]-4,6-dihydrobenzothiophene-3-carboxylic acid]", "IC50": 0.15},
      {"smiles": "Cn1cc(C(=O)Nc2sc3c(c2C(=O)O)CC(C)(C)CC3)cn1", "note": "[#202, 5,5-Dimethyl-2-[(1-methylpyrazole-4-carbonyl)amino]-6,7-dihydro-4H-benzothiophene-3-carboxylic acid]", "IC50": 0.9},
      {"smiles": "CC1(C)CCc2c(sc(NC(=O)c3cccc(N4CCOCC4)c3)c2C(=O)O)C1", "note": "[#203, 6,6-Dimethyl-2-[(3-morpholinobenzoyl)amino]-5,7-dihydro-4H-benzothiophene-3-carboxylic acid]", "IC50": 0.13},
      {"smiles": "CC1(C)CCc2c(sc(NC(=O)c3ccc(N4CCOCC4)nc3)c2C(=O)O)C1", "note": "[#204, 6,6-Dimethyl-2-[(6-morpholinopyridine-3-carbonyl)amino]-5,7-dihydro-4H-benzothiophene-3-carboxylic acid]", "IC50": 0.26},
      {"smiles": "CC1(C)Cc2c(sc(NC(=O)c3ccncn3)c2C(=O)O)C(C)(C)C1", "note": "[#205, 5,5,7,7-Tetramethyl-2-(pyrimidine-4-carbonylamino)-4,6-dihydrobenzothiophene-3-carboxylic acid]", "IC50": 0.74},
      {"smiles": "CC1(C)CCc2c(sc(NC(=O)c3cnc(N4CCOCC4)nc3)c2C(=O)O)C1", "note": "[#208, 6,6-Dimethyl-2-[(2-morpholinopyrimidine-5-carbonyl)amino]-5,7-dihydro-4H-benzothiophene-3-carboxylic acid]", "IC50": 0.74},
      {"smiles": "CC1(C)CCc2sc(NC(=O)c3cnc(N4CCOCC4)nc3)c(C(=O)O)c2C1", "note": "[#209, 5,5-Dimethyl-2-[(2-morpholinopyrimidine-5-carbonyl)amino]-6,7-dihydro-4H-benzothiophene-3-carboxylic acid]", "IC50": 0.82},
      {"smiles": "Cn1cc(C(=O)Nc2sc3c(c2C(=O)O)CCC(C)(C)C3)cn1", "note": "[#212, 6,6-Dimethyl-2-[(1-methylpyrazole-4-carbonyl)amino]-5,7-dihydro-4H-benzothiophene-3-carboxylic acid]", "IC50": 0.9},
      {"smiles": "CC1(C)CCc2sc(NC(=O)c3cccc(N4CCOCC4)n3)c(C(=O)O)c2C1", "note": "[#213, 5,5-Dimethyl-2-[(6-morpholinopyridine-2-carbonyl)amino]-6,7-dihydro-4H-benzothiophene-3-carboxylic acid]", "IC50": 0.61},
      {"smiles": "CC1(C)CCc2c(sc(NC(=O)c3cccc(N4CCOCC4)n3)c2C(=O)O)C1", "note": "[#219, 6,6-Dimethyl-2-[(6-morpholinopyridine-2-carbonyl)amino]-5,7-dihydro-4H-benzothiophene-3-carboxylic acid]", "IC50": 0.51},
      {"smiles": "CC1(C)CCc2sc(NC(=O)c3ccnc(N4CCOCC4)c3)c(C(=O)O)c2C1", "note": "[#221, 5,5-Dimethyl-2-[(2-morpholinopyridine-4-carbonyl)amino]-6,7-dihydro-4H-benzothiophene-3-carboxylic acid]", "IC50": 0.38},
      {"smiles": "CC1(C)CCc2c(sc(NC(=O)c3ccnc(N4CCOCC4)c3)c2C(=O)O)C1", "note": "[#222, 6,6-Dimethyl-2-[(2-morpholinopyridine-4-carbonyl)amino]-5,7-dihydro-4H-benzothiophene-3-carboxylic acid]", "IC50": 0.051},
      {"smiles": "CC1(C)CCc2sc(NC(=O)c3cc[nH]n3)c(C(=O)O)c2C1", "note": "[#225, 5,5-Dimethyl-2-(1H-pyrazole-3-carbonylamino)-6,7-dihydro-4H-benzothiophene-3-carboxylic acid]", "IC50": 0.11},
      {"smiles": "COCCn1ccc(C(=O)Nc2sc3c(c2C(=O)O)CC(C)(C)CC3)n1", "note": "[#226, 2-[[1-(2-Methoxyethyl)pyrazole-3-carbonyl]amino]-5,5-dimethyl-6,7-dihydro-4H-benzothiophene-3-carboxylic acid]", "IC50": 0.82},
      {"smiles": "CC1(C)CCc2sc(NC(=O)c3ccc(N4CCOCC4)nn3)c(C(=O)O)c2C1", "note": "[#227, 5,5-Dimethyl-2-[(6-morpholinopyridazine-3-carbonyl)amino]-6,7-dihydro-4H-benzothiophene-3-carboxylic acid]", "IC50": 1.39},
      {"smiles": "CC1(C)CCc2sc(NC(=O)c3ccn(CC4CCOCC4)n3)c(C(=O)O)c2C1", "note": "[#228, 5,5-Dimethyl-2-[[1-(tetrahydropyran-4-ylmethyl)pyrazole-3-carbonyl]amino]-6,7-dihydro-4H-benzothiophene-3-carboxylic acid]", "IC50": 0.9},
      {"smiles": "CC1(C)CCc2c(sc(NC(=O)c3ccc(N4CCOCC4)cn3)c2C(=O)O)C1", "note": "[#229, 6,6-Dimethyl-2-[(5-morpholinopyridine-2-carbonyl)amino]-5,7-dihydro-4H-benzothiophene-3-carboxylic acid]", "IC50": 0.37},
      {"smiles": "CC1(C)CCc2c(sc(NC(=O)c3cnc(N4CCOCC4)cn3)c2C(=O)O)C1", "note": "[#230, 6,6-Dimethyl-2-[(5-morpholinopyrazine-2-carbonyl)amino]-5,7-dihydro-4H-benzothiophene-3-carboxylic acid]", "IC50": 0.42},
      {"smiles": "CC1(C)CCc2c(sc(NC(=O)c3ccc(F)cc3F)c2C(=O)O)C1", "note": "[Compound #17, 2-[(2,4-Difluorobenzoyl)amino]-6,6-dimethyl-5,7-dihydro-4H-benzothiophene-3-carboxylic acid]", "IC50": 0.26},
      {"smiles": "CC1(C)CCc2c(sc(NC(=O)c3ccc(F)cc3)c2C(=O)O)C1", "note": "[Compound #19, 2-[(4-Fluorobenzoyl)amino]-6,6-dimethyl-5,7-dihydro-4H-benzothiophene-3-carboxylic acid]", "IC50": 0.11},
      {"smiles": "COc1cccc(C(=O)Nc2sc3c(c2C(=O)O)CCC(C)(C)C3)c1", "note": "[Compound #21, 2-[(3-Methoxybenzoyl)amino]-6,6-dimethyl-5,7-dihydro-4H-benzothiophene-3-carboxylic acid]", "IC50": 0.0558},
      {"smiles": "CC1(C)CCc2c(sc(NC(=O)c3ccc(OC(F)F)cc3)c2C(=O)O)C1", "note": "[Compound #23, 2-[[4-(Difluoromethoxy)benzoyl]amino]-6,6-dimethyl-5,7-dihydro-4H-benzothiophene-3-carboxylic acid]", "IC50": 0.08},
      {"smiles": "CC1(C)CCc2c(sc(NC(=O)c3ccc(OC(F)(F)F)cc3)c2C(=O)O)C1", "note": "[Compound #24, 6,6-Dimethyl-2-[[4-(trifluoromethoxy)benzoyl]amino]-5,7-dihydro-4H-benzothiophene-3-carboxylic acid]", "IC50": 0.16},
      {"smiles": "COc1ccc(C(=O)Nc2sc3c(c2C(=O)O)CCC(C)(C)C3)nc1", "note": "[Compound #25, 2-[(5-Methoxypyridine-2-carbonyl)amino]-6,6-dimethyl-5,7-dihydro-4H-benzothiophene-3-carboxylic acid]", "IC50": 0.09}
    ]}
  ]
}
